Reference: patent publication US6111069A, “Polypeptides that include conformation-constraining groups which flank a protein-protein interaction site” (Virginia Commonwealth University, priority 1997, dated 2000)
Where a SMILES comes first, the peptide text is derived from it.

Assays:
[1] = Preliminary studies of hypotensive peptide versus diltiazem (diastolic pressure, arrhythmia); type: in vivo, rat
Method: 60 to 120 μg per rat (5 to 10 μM).

[2] = system: receptors of sweet tasting papillae; conditions: comparison value; cited from earlier work

In the case of CSCC[C@H](NC(=O)[C@H](C)NC(=O)[C@@H](NC(=O)[C@@H]1CCCN1C(=O)[C@H](C)N)[C@@H](C)O)C(=O)N[C@@H](Cc1c[nH]c2ccccc12)C(=O)N1CCC[C@H]1C(=O)N[C@@H](C)C(=O)O [HP-1, Ala-Pro-Thr-Ala-Met-Trp-Pro-Ala] (H-APTAMWPA-OH), the “Effect on diastolic pressure” value [1] was “does not increase diastolic pressure”.

For COC(=O)[C@H](Cc1ccccc1)NC(=O)[C@@H](N)CC(=O)O [aspartame] (H-Asp-Phe-OMe), the “Sweetness relative to sugar” value [2] is given as 160 times sweeter than sugar.
